This note sets out measurements from ChEMBL document CHEMBL1287721, “Synthesis of potent, substituted carbazoles as selective androgen receptor modulators (SARMs)” (Bioorg Med Chem Lett, 2010).

In one assay the target is T1, Androgen receptor (Homo sapiens, UniProt P10275).
T1 sequence (P10275 whole entry): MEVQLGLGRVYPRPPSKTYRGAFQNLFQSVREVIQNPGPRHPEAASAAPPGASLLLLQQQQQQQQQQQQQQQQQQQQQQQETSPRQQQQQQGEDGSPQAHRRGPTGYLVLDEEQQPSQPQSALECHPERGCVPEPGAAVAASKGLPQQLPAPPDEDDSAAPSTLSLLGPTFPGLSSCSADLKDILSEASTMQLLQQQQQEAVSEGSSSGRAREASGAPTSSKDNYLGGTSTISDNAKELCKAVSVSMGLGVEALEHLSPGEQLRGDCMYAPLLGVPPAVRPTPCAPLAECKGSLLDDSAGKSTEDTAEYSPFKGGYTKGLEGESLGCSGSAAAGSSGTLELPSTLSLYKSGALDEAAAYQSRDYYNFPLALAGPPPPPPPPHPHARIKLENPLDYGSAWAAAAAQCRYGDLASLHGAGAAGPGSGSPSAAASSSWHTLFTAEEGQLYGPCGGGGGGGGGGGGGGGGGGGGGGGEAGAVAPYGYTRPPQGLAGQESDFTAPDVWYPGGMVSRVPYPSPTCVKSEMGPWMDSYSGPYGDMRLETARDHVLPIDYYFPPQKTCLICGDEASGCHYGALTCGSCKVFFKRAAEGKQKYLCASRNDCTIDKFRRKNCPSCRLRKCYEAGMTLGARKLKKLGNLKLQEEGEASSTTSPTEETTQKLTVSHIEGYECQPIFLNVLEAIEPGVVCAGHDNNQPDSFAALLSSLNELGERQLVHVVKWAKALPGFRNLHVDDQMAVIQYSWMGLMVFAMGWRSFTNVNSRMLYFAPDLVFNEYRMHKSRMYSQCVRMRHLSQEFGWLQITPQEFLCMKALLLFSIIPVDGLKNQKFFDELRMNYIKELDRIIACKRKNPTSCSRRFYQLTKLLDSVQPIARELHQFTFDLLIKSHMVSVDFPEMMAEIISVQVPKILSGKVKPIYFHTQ
Description: Binding affinity to androgen receptor by fluorescence binding assay.

Another assay deals with Rattus norvegicus. Description: Positive-anabolic effect in Sprague-Dawley rat assessed as increase in leavator ani muscle weight at 30 mg/kg, po administered once daily for 4 days and measured 24 hrs after the last dose by Herschberger assay. Particulars: Muscle tissue. The format is functional, organism-based. Also on record: dose 30 mg/kg.

The source made the active and inactive calls. No cut-off for these calls is given here.

The IC50 is the midpoint of a concentration-inhibition curve. High values mean lower potency, low ones higher potency. In turn, `OC1(C(F)(F)F)CCCc2c1[nH]c1c(Cl)ccc(Cl)c21` (stereo unspecified) registered an IC50 at Androgen receptor of 85 nM. Turning to `OC1(C(F)(F)F)CCCc2c1[nH]c1cc(Cl)c(Cl)cc21` (stereo unspecified), the 50% inhibitory concentration (IC50) on Androgen receptor is 27 nM. The outcome in the assay on Rattus norvegicus was Active. In the case of `OC1(C(F)(F)F)CCCCc2c1[nH]c1c(Cl)cc(Cl)cc21` (stereo unspecified), at Androgen receptor, the IC50 came out at 600 nM. Still for that read-out and setting: the same measure for `OC1(C(F)(F)F)CCCc2c1[nH]c1c(Cl)cc(F)cc21` (stereo unspecified): 90 nM. On the same count and under the same terms, the same measure for `CC1(O)CCCc2c1[nH]c1ccc(C#N)cc21` (stereo unspecified): 9200 nM. Same read-out and setting: to `Oc1c(Cc2ccccc2)ccc2c1[nH]c1cc(Cl)c(Cl)cc12` belongs above 1000 nM.

`OC1(C(F)(F)F)CCCc2c1[nH]c1c(Cl)cc(Cl)cc21` (stereo unspecified) registered a 50% inhibitory concentration (IC50) at Androgen receptor of 34 nM.

Turning to `OC1(C(F)(F)F)c2[nH]c3c(Cl)cc(Cl)cc3c2CCC1(F)F` (stereo unspecified), the half-inhibitory concentration (IC50) at Androgen receptor turned out to be 100 nM. `OC1(C(F)(F)F)CCc2c1[nH]c1c(Cl)cc(Cl)cc21` (stereo unspecified) gave an IC50 at Androgen receptor of 13 nM. For `OC1(C(F)(F)F)CCCc2c1[nH]c1ccc(Cl)c(Cl)c21` (stereo unspecified), the IC50 on Androgen receptor was 95 nM. The same measure, in the same setting: the same measure for `OC1(C(F)(F)C(F)(F)F)CCCc2c1[nH]c1cc(Cl)c(Cl)cc21` (stereo unspecified): 34 nM. In turn, `Oc1c(Cc2ccccc2)ccc2c1[nH]c1ccc(Cl)c(Cl)c12` returned an IC50 at Androgen receptor above 1000 nM. Still for that read-out and setting: to `N#Cc1ccc2[nH]c3c(c2c1)CCCC3(O)C(F)(F)C(F)(F)F` (stereo unspecified) belongs above 10000 nM. The same measure, in the same setting: the same measure for `CC1(O)CCCc2c1[nH]c1cc(Cl)c(Cl)cc21` (stereo unspecified): above 10000 nM. `N#Cc1ccc2[nH]c3c(c2c1)CCCC3(O)C(F)(F)F` (stereo unspecified) showed an IC50 on Androgen receptor of 480 nM.
